The values that follow come from paper PMC6445550 (Analytical biochemistry, 2014).

The structures appear in SMILES notation.

One may read the IC50 as the concentration that inhibits the measured activity by half. A higher IC50 goes with weaker potency.

The assay addresses T1, Erf2 (Saccharomyces cerevisiae, UniProt Q06551).
T1 sequence (Q06551 1-359): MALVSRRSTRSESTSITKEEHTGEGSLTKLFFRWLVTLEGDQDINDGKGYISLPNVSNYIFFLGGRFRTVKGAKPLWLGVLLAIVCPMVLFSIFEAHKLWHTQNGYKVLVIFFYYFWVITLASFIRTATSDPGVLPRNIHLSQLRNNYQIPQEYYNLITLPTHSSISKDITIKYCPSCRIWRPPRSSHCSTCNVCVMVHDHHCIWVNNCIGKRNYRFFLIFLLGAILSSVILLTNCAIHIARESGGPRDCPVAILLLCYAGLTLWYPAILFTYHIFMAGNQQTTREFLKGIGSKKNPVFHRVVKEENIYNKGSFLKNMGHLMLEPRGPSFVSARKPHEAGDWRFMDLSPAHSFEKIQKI
Description: fluorescence coupled autopalmitoylation assay with purified complex. In kind it is biochemical.

The compound `CCCCCCCCCCCCCCC(Br)C(=O)O` (stereo not shown) [2-BP, 2-bromopalmitate] displayed an IC50 of about 100 µM.
